Tests used:
[1] = tested on: Human immunodeficiency virus 1; assay: Antiviral activity against HIV1 3B infected in human MT4 cells assessed as virus-induced cytopathic effect incubated for 5 days by MTT assay; format: functional, organism-based; details: Human immunodeficiency virus 1, 3B, MT4, 120 h
[2] = tested on: Human immunodeficiency virus 1; assay: Antiviral activity against HIV1 3B harbouring NNRTI K103N mutant infected in human MT4 cells assessed as virus-induced cytopathic effect incubated for 5 days by MTT assay; format: functional, organism-based; details: Human immunodeficiency virus 1, 3B, MT4, 120 h
[3] = Cytotoxicity against human MT4 cells assessed as reduction in cell viability incubated for 5 days by MTT assay; format: cell-based
in vitro [4] = details: human, MT4 cells; MT4 cells infected with HIV1 3B
Description: Selectivity index, ratio of CC50 for cytotoxicity against human MT4 cells to EC50 for antiviral activity against HIV1 3B infected in human MT4 cells

in vitro [5] = details: human, MT4 cells; MT4 cells infected with HIV1 3B K103N mutant
Description: Selectivity index, ratio of CC50 for cytotoxicity against human MT4 cells to EC50 for antiviral activity against HIV1 3B harbouring NNRTI K103N mutant infected in human MT4 cells

[6] = biological target: Human immunodeficiency virus type 1 reverse transcriptase (Human immunodeficiency virus 1, UniProt Q72547)
Description: Inhibition of recombinant wild type HIV-1 His-tagged reverse transcriptase p66/p51 expressed in Escherichia coli JM109 using poly(rA)/oligo(dT)16 as template/primer incubated for 40 mins by pico-green based spectrofluorometric analysis

| Compound | EC50 [1] [nM] | EC50 [2] [nM] | CC50 at 120 h [3] [nM] | selectivity ratio (in vitro [4]) | selectivity ratio (in vitro [5]) | IC50 [6] [nM] |
| --- | --- | --- | --- | --- | --- | --- |
| COc1cc2nc([S+]([O-])CC(=O)Nc3cccc(Cl)c3)nc(Nc3c(Cl)cc(/C=C/C#N)cc3Cl)c2cc1OC (stereo not given) | 313 | 68.7 | 68900 | 220 | 1000 |  |
| COc1cc2nc(Nc3ccc(C#N)cc3)nc(Nc3c(Cl)cc(/C=C/C#N)cc3Cl)c2cc1OC | 5.3 | 6.3 | 9920 | 1890 | 1580 | 46 |
| COc1cc2nc([S+]([O-])CC(=O)Nc3cccc(C#N)c3)nc(Nc3c(Cl)cc(/C=C/C#N)cc3Cl)c2cc1OC (stereo not given) | 99.6 | 38.3 | ≥ 70300 | ≥ 706 | ≥ 1840 |  |
| COc1cc2nc([S+]([O-])CC(=O)Nc3ccc(C#N)cc3)nc(Nc3c(Cl)cc(/C=C/C#N)cc3Cl)c2cc1OC (stereo not given) | 58.2 | 42.6 | ≥ 188000 | ≥ 3240 | ≥ 4420 |  |
| COc1cc2nc([S+]([O-])CC(=O)Nc3ccc(C)cc3)nc(Nc3c(Cl)cc(/C=C/C#N)cc3Cl)c2cc1OC (stereo not given) | 327 | 49 | 32200 | 98 | 657 |  |
| COc1cc2nc([S+]([O-])CC(=O)Nc3ccccc3F)nc(Nc3c(Cl)cc(/C=C/C#N)cc3Cl)c2cc1OC (stereo not given) | 17000 | 5660 | > 208000 | > 12 | > 37 |  |
| COc1cc2nc([S+]([O-])CC(=O)Nc3ccccc3[N+](=O)[O-])nc(Nc3c(Cl)cc(/C=C/C#N)cc3Cl)c2cc1OC (stereo not given) | > 199000 |  | > 199000 |  |  |  |
| COc1cc2nc(SCC(=O)Nc3ccc(C#N)cc3)nc(Nc3c(C)cc(/C=C/C#N)cc3C)c2cc1OC | 304 | 201 | > 227000 | > 746 | > 1130 | 3630 |
| COc1cc2nc([S+]([O-])CC(=O)Nc3ccc(Cl)cc3)nc(Nc3c(Cl)cc(/C=C/C#N)cc3Cl)c2cc1OC (stereo not given) | 46.1 | 26.3 | 14400 | 313 | 550 |  |
| COc1cc2nc([S+]([O-])CC(=O)Nc3ccc(C(F)(F)F)cc3)nc(Nc3c(C)cc(/C=C/C#N)cc3C)c2cc1OC (stereo not given) | 450 | 249 | 52200 | 116 | 210 |  |
| COc1cc2nc(Nc3ccc(C#N)cc3)nc(Nc3c(C)cc(/C=C/C#N)cc3C)c2cc1OC | 12.7 | 10.4 | 10200 | 806 | 986 | 550 |
| COc1cc2nc(SCC(=O)Nc3ccc(S(N)(=O)=O)cc3)nc(Nc3c(Cl)cc(/C=C/C#N)cc3Cl)c2cc1OC | > 116000 |  | 116000 | < 1 |  |  |
| COc1cc2nc(SCC(=O)Nc3cccc(S(N)(=O)=O)c3)nc(Nc3c(Cl)cc(/C=C/C#N)cc3Cl)c2cc1OC | > 194000 |  | > 194000 | > 1 |  |  |
| COc1cc2nc(SCC(=O)Nc3ccc(C)cc3)nc(Nc3c(Cl)cc(/C=C/C#N)cc3Cl)c2cc1OC | > 2530 |  | 2540 | < 1 |  |  |
| COc1cc2nc([S+]([O-])CC(=O)Nc3ccccc3C#N)nc(Nc3c(Cl)cc(/C=C/C#N)cc3Cl)c2cc1OC (stereo not given) | 30600 | 11700 | > 206000 | > 7 | > 18 |  |
| COc1cc2nc([S+]([O-])CC(=O)Nc3ccc(C(F)(F)F)cc3)nc(Nc3c(Cl)cc(/C=C/C#N)cc3Cl)c2cc1OC (stereo not given) | 227 | 88.9 | 22000 | 97 | 247 |  |
| COc1cc2nc(Nc3ccc(C#N)cc3)nc(Nc3c(F)cc(/C=C/C#N)cc3F)c2cc1OC | 41.1 | 18.1 | 6400 | 156 | 355 |  |
| COc1cc2nc([S+]([O-])CC(=O)Nc3ccc(S(N)(=O)=O)cc3)nc(Nc3c(Cl)cc(/C=C/C#N)cc3Cl)c2cc1OC (stereo not given) | 19300 | 9190 | > 189000 | > 10 | > 21 |  |
| COc1cc2nc(SCC(=O)Nc3ccc([N+](=O)[O-])cc3)nc(Nc3c(C)cc(/C=C/C#N)cc3C)c2cc1OC | 749 | 358 | > 219000 | > 292 | > 612 | 4000 |
| COc1cc2nc(SCC(=O)Nc3cc([N+](=O)[O-])ccc3F)nc(Nc3c(Cl)cc(/C=C/C#N)cc3Cl)c2cc1OC | > 199000 |  | > 199000 | > 1 |  |  |
| COc1cc2nc(Nc3ccc(C#N)cc3)nc(Nc3c(C)cc(/C=C/C#N)cc3F)c2cc1OC | 12.2 | 11 | > 52000 | > 4250 | > 4720 |  |

| Compound | EC50 [1] [nM] | EC50 [2] [nM] | CC50 at 120 h [3] [nM] | selectivity ratio (in vitro [4]) | selectivity ratio (in vitro [5]) | IC50 [6] [nM] |
| --- | --- | --- | --- | --- | --- | --- |
| COc1cc2nc(SCC(=O)Nc3ccc(C(F)(F)F)cc3)nc(Nc3c(C)cc(/C=C/C#N)cc3C)c2cc1OC | 5280 | 2410 | > 211000 | > 40 | > 87 |  |
| Cc1ccnc2c1NC(=O)c1cccnc1N2C1CC1 [NEVIRAPINE] | 235 | ≥ 11200 | > 15000 |  |  |  |
| COc1cc2nc([S+]([O-])CC(=O)Nc3c(C)cc(C)cc3C)nc(Nc3c(Cl)cc(/C=C/C#N)cc3Cl)c2cc1OC (stereo not given) | 7310 |  | 8870 | 1 |  |  |
| COc1cc2nc(SCC(=O)Nc3ccc(F)cc3)nc(Nc3c(C)cc(/C=C/C#N)cc3C)c2cc1OC | 2280 | 942 | ≥ 150000 | ≥ 66 | ≥ 159 |  |
| COc1cc2nc([S+]([O-])CC(=O)Nc3cccc(F)c3)nc(Nc3c(Cl)cc(/C=C/C#N)cc3Cl)c2cc1OC (stereo not given) | 237 | 69.6 | 9550 | 40 | 137 |  |
| COc1ccccc1NC(=O)C[S+]([O-])c1nc(Nc2c(Cl)cc(/C=C/C#N)cc2Cl)c2cc(OC)c(OC)cc2n1 (stereo not given) | 3220 | 1540 | > 204000 | > 63 | > 132 |  |
| COc1cc2nc([S+]([O-])CC(=O)Nc3cccc([N+](=O)[O-])c3)nc(Nc3c(Cl)cc(/C=C/C#N)cc3Cl)c2cc1OC (stereo not given) | 423 | 270 | ≥ 83200 | ≥ 197 | ≥ 308 |  |
| O=C1Nc2ccc(Cl)cc2[C@@](C#CC2CC2)(C(F)(F)F)O1 [EFAVIRENZ] | 3.8 | 124 | > 6340 |  |  |  |
| COc1cc2nc(SCC(=O)Nc3ccc(C(F)(F)F)cc3)nc(Nc3c(Cl)cc(/C=C/C#N)cc3Cl)c2cc1OC | 20000 | 3910 | > 197000 | > 10 | > 50 |  |
| COc1cc2nc(SCC(=O)Nc3ccc(Cl)cc3)nc(Nc3c(Cl)cc(/C=C/C#N)cc3Cl)c2cc1OC | 1250 | 677 | 29500 | 24 | 44 |  |
| COc1cccc(NC(=O)C[S+]([O-])c2nc(Nc3c(Cl)cc(/C=C/C#N)cc3Cl)c3cc(OC)c(OC)cc3n2)c1 (stereo not given) | 2370 | 465 | ≥ 167000 | ≥ 70 | ≥ 439 |  |
| COc1cc2nc([S+]([O-])CC(=O)Nc3cc([N+](=O)[O-])ccc3F)nc(Nc3c(Cl)cc(/C=C/C#N)cc3Cl)c2cc1OC (stereo not given) | 8080 | 6000 | > 194000 | > 24 | > 32 |  |
| COc1cc2nc([S+]([O-])CC(=O)Nc3ccc(F)cc3)nc(Nc3c(C)cc(/C=C/C#N)cc3C)c2cc1OC (stereo not given) | 131 | 32.9 | 27400 | 209 | 833 |  |
| COc1ccc(NC(=O)CSc2nc(Nc3c(C)cc(/C=C/C#N)cc3C)c3cc(OC)c(OC)cc3n2)cc1 | 2750 | 745 | > 225000 | > 82 | > 302 |  |
| COc1cc2nc([S+]([O-])CC(=O)Nc3cccc(C(F)(F)F)c3)nc(Nc3c(Cl)cc(/C=C/C#N)cc3Cl)c2cc1OC (stereo not given) | 1270 | 626 | 21800 | 17 | 35 |  |
| COc1cc2nc([S+]([O-])CC(=O)Nc3ccccc3C(F)(F)F)nc(Nc3c(Cl)cc(/C=C/C#N)cc3Cl)c2cc1OC (stereo not given) | 67100 | > 192000 | > 192000 | > 3 |  |  |
| COc1cc2nc([S+]([O-])CC(=O)Nc3cccc(S(N)(=O)=O)c3)nc(Nc3c(Cl)cc(/C=C/C#N)cc3Cl)c2cc1OC (stereo not given) | > 67800 |  | 67800 | < 1 |  |  |
| COc1cc2nc([S+]([O-])CC(=O)Nc3ccc([N+](=O)[O-])cc3)nc(Nc3c(Cl)cc(/C=C/C#N)cc3Cl)c2cc1OC (stereo not given) | 38.5 | 31 | 92800 | 2410 | 2990 |  |
| Cc1cc(C#N)cc(C)c1Oc1nc(Nc2ccc(C#N)cc2)nc(N)c1Br [ETRAVIRINE] | 4.2 | 3.7 | > 4590 |  |  |  |
| COc1cc2nc(SCC(=O)Nc3cccc(Cl)c3)nc(Nc3c(Cl)cc(/C=C/C#N)cc3Cl)c2cc1OC | > 208000 |  | > 208000 | > 1 |  |  |
